Key:
Assay in all cases: NCI-60 single dose screen, sulforhodamine B
Format in all cases: cell-based, human
[1] = tested on: COLO 205; conditions: Colon cancer COLO 205; single dose 10^−5 M
Outline: (§1)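 Percent growth inhibition, referenced to untreated wells and a time-zero plate, allowing net growth inhibition to be distinguished from cell kill. Exposure lasted 2 days at 10^−5 M after 1-day pre-incubation; sulforhodamine B protein stain.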

[2] = tested on: DU-145; conditions: Prostate cancer DU-145; single dose 10^−5 M
Outline: as §1

[3] = tested on: HCT-116; conditions: Colon cancer HCT-116; single dose 10^−5 M
Outline: as §1

[4] = tested on: HCT-15; conditions: Colon cancer HCT-15; single dose 10^−5 M
Outline: as §1

[5] = tested on: K-562; conditions: Leukaemia K-562; single dose 10^−5 M
Outline: as §1

[6] = tested on: LOX IMVI; conditions: Melanoma LOX IMVI; single dose 10^−5 M
Outline: as §1

[7] = tested on: M14; conditions: Melanoma M14; single dose 10^−5 M
Outline: as §1

[8] = tested on: MDA-MB-231/ATCC; conditions: Breast cancer MDA-MB-231/ATCC; single dose 10^−5 M
Outline: as §1

[9] = tested on: MDA-MB-435; conditions: Melanoma MDA-MB-435; single dose 10^−5 M
Outline: as §1

[10] = tested on: MOLT-4; conditions: Leukaemia MOLT-4; single dose 10^−5 M
Outline: as §1

[11] = tested on: NCI-H226; conditions: Non-small cell lung cancer NCI-H226; single dose 10^−5 M
Outline: as §1

[12] = tested on: NCI/ADR-RES; conditions: Ovarian cancer NCI/ADR-RES; single dose 10^−5 M
Outline: as §1

[13] = tested on: OVCAR-5; conditions: Ovarian cancer OVCAR-5; single dose 10^−5 M
Outline: as §1

[14] = tested on: RPMI-8226; conditions: Leukaemia RPMI-8226; single dose 10^−5 M
Outline: as §1

[15] = tested on: RXF 393; conditions: Renal cancer RXF 393; single dose 10^−5 M
Outline: as §1

[16] = tested on: SF-295; conditions: CNS cancer SF-295; single dose 10^−5 M
Outline: as §1

[17] = tested on: SF-539; conditions: CNS cancer SF-539; single dose 10^−5 M
Outline: as §1

[18] = tested on: SK-MEL-28; conditions: Melanoma SK-MEL-28; single dose 10^−5 M
Outline: as §1

[19] = tested on: SK-MEL-2; conditions: Melanoma SK-MEL-2; single dose 10^−5 M
Outline: as §1

[20] = tested on: SNB-19; conditions: CNS cancer SNB-19; single dose 10^−5 M
Outline: as §1

[21] = tested on: SNB-75; conditions: CNS cancer SNB-75; single dose 10^−5 M
Outline: as §1

[22] = tested on: SW-620; conditions: Colon cancer SW-620; single dose 10^−5 M
Outline: as §1

[23] = tested on: UACC-62; conditions: Melanoma UACC-62; single dose 10^−5 M
Outline: as §1

[24] = tested on: UO-31; conditions: Renal cancer UO-31; single dose 10^−5 M
Outline: as §1

Row | Structure (SMILES) | GI% at 10^−5 M [1] | GI% at 10^−5 M [2] | GI% at 10^−5 M [3] | GI% at 10^−5 M [4] | GI% at 10^−5 M [5] | GI% at 10^−5 M [6] | GI% at 10^−5 M [7] | GI% at 10^−5 M [8] | GI% at 10^−5 M [9] | GI% at 10^−5 M [10] | GI% at 10^−5 M [11] | GI% at 10^−5 M [12] | GI% at 10^−5 M [13] | GI% at 10^−5 M [14] | GI% at 10^−5 M [15] | GI% at 10^−5 M [16] | GI% at 10^−5 M [17] | GI% at 10^−5 M [18] | GI% at 10^−5 M [19] | GI% at 10^−5 M [20] | further results
1 | O=c1c2ccccc2nc(COc2ccccc2)n1N=CC=Cc1ccccc1 [Compound 6b, 2-(phenoxymethyl)-3-((3-phenylallylidene)amino)quinazolin-4(3H)-one] | – (– means GI < 10%) | – (– means GI < 10%) | – (– means GI < 10%) | 23.15% | – (– means GI < 10%) | 27.86% | – (– means GI < 10%) | – (– means GI < 10%) | – (– means GI < 10%) | – (– means GI < 10%) | – (– means GI < 10%) | – (– means GI < 10%) | – (– means GI < 10%) | 12.52% | – (– means GI < 10%) | – (– means GI < 10%) | – (– means GI < 10%) | – (– means GI < 10%) | – (– means GI < 10%) | 17.13% | GI% at 10^−5 M [21]: 16.57%; GI% at 10^−5 M [22]: – (– means GI < 10%); GI% at 10^−5 M [23]: – (– means GI < 10%); GI% at 10^−5 M [24]: 10.2%
2 | CN1CCN(CC(=O)Nn2c(COc3ccccc3)nc3ccccc3c2=O)CC1 [Compound 8a, 2–(4-methylpiperazin-1-yl)-N-(4-oxo-2-(phenoxymethyl)quinazolin-3(4H)-yl)acetamide] | 15.89% | – (– means GI < 10%) | 18.15% | 44.04% | 67.8% | 14.73% | 21.06% | 21.65% | 94.15% | 11.86% | 15.39% | 28.41% | – (– means GI < 10%) | 23.17% | – (– means GI < 10%) | – (– means GI < 10%) | 11.37% | – (– means GI < 10%) | 12.84% | 13.65% | GI% at 10^−5 M [21]: 27.37%; GI% at 10^−5 M [22]: 42.80%; GI% at 10^−5 M [23]: 30.69%; GI% at 10^−5 M [24]: 29.32%
3 | O=C(CN1CCN(c2ccccc2)CC1)Nn1c(COc2ccccc2)nc2ccccc2c1=O [Compound 8b, N-(4-oxo-2-(phenoxymethyl)quinazolin-3(4H)-yl)-2–(4-phenylpiperazin-1-yl)acetamid] | – (– means GI < 10%) | – (– means GI < 10%) | – (– means GI < 10%) | – (– means GI < 10%) | – (– means GI < 10%) | – (– means GI < 10%) | – (– means GI < 10%) | 10.38% | – (– means GI < 10%) | – (– means GI < 10%) | – (– means GI < 10%) | – (– means GI < 10%) | – (– means GI < 10%) | – (– means GI < 10%) | – (– means GI < 10%) | – (– means GI < 10%) | – (– means GI < 10%) | – (– means GI < 10%) | – (– means GI < 10%) | – (– means GI < 10%) | GI% at 10^−5 M [21]: – (– means GI < 10%); GI% at 10^−5 M [22]: – (– means GI < 10%); GI% at 10^−5 M [23]: – (– means GI < 10%); GI% at 10^−5 M [24]: 20.18%
4 | COc1ccc(N2CCN(CC(=O)Nn3c(COc4ccccc4)nc4ccccc4c3=O)CC2)cc1 [Compound 8c, 2–(4-(4-methoxyphenyl)piperazin-1-yl)-N-(4-oxo-2-(phenoxymethyl)quinazolin-3(4H)-yl)acetamide] | – (– means GI < 10%) | – (– means GI < 10%) | – (– means GI < 10%) | – (– means GI < 10%) | – (– means GI < 10%) | – (– means GI < 10%) | – (– means GI < 10%) | – (– means GI < 10%) | – (– means GI < 10%) | – (– means GI < 10%) | – (– means GI < 10%) | – (– means GI < 10%) | – (– means GI < 10%) | – (– means GI < 10%) | – (– means GI < 10%) | – (– means GI < 10%) | – (– means GI < 10%) | – (– means GI < 10%) | – (– means GI < 10%) | – (– means GI < 10%) | GI% at 10^−5 M [21]: 26.47%; GI% at 10^−5 M [22]: – (– means GI < 10%); GI% at 10^−5 M [23]: – (– means GI < 10%); GI% at 10^−5 M [24]: 10.03%
